Measurements as given in ChEMBL document CHEMBL1201862, “PubChem BioAssay data set” (2004).
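Protocol summary: plate cells (96-well), add compound at 5 concentrations, incubate 48 h, interpolate endpoints linearly. GI50 is the concentration that inhibits growth by half.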 The source made the active and inactive calls. Cut-off read from the data, not from the text of the source: active = GI50 up to about 1.1 µM and inactive = higher.

Key:
Assay in all cases: NCI-60 cell line screen, 48 h
ACHN = system: ACHN
BT-549 = system: BT-549
CAKI-1 = system: CAKI-1
CCRF-CEM = system: CCRF-CEM
HOP-62 = system: HOP-62
KM12 = system: KM12
MDA-MB-435 = system: MDA-MB-435
Malme-3M = system: Malme-3M
NCI-H226 = system: NCI-H226
NCI-H23 = system: NCI-H23
NCI-H460 = system: NCI-H460
OVCAR-3 = system: OVCAR-3
RXF 393 = system: RXF 393
SK-MEL-5 = system: SK-MEL-5
SR = system: SR
SW-620 = system: SW-620
U-251 = system: U-251
UACC-62 = system: UACC-62
OVCAR-5 = system: OVCAR-5
SNB-75 = system: SNB-75

Compound	GI50 (ACHN)	GI50 (BT-549)	GI50 (CAKI-1)	GI50 (CCRF-CEM)	GI50 (HOP-62)	GI50 (KM12)	GI50 (MDA-MB-435)	GI50 (Malme-3M)	GI50 (NCI-H226)	GI50 (NCI-H23)	GI50 (NCI-H460)	GI50 (OVCAR-3)	GI50 (RXF 393)	GI50 (SK-MEL-5)	GI50 (SR)	GI50 (SW-620)	GI50 (U-251)	GI50 (UACC-62)	GI50 (OVCAR-5)	GI50 (SNB-75)
COc1ccc(/C=C2\C[C@H]3[C@@H]4CC=C5C[C@@H](O)CC[C@]5(C)[C@H]4CC[C@]3(C)\C2=N\O)cc1	19.5 µM (inactive)	7.69 µM (inactive)	2.58 µM (inactive)	4.58 µM (inactive)	55.6 µM (inactive)	16.8 µM (inactive)	10.5 µM (inactive)	24.9 µM (inactive)	19.3 µM (inactive)	16.9 µM (inactive)	34.4 µM (inactive)	6.89 µM (inactive)	12.7 µM (inactive)	5.04 µM (inactive)	1.89 µM (inactive)	26.7 µM (inactive)	10.5 µM (inactive)	17.7 µM (inactive)	–	–
COc1cccc(-c2cc(O)c3cc(C)cnc3n2)c1	0.0625 µM (active)	> 100 µM (inactive)	0.0389 µM (active)	0.0366 µM (active)	0.0682 µM (active)	0.0885 µM (active)	0.0122 µM (active)	–	0.0757 µM (active)	0.203 µM (active)	0.0458 µM (active)	0.049 µM (active)	0.0211 µM (active)	0.0787 µM (active)	0.0297 µM (active)	0.06 µM (active)	0.0473 µM (active)	0.0258 µM (active)	0.82 µM (active)	0.0188 µM (active)
O=C(NO)c1ccc(OCc2ccccc2)cc1	22.3 µM (inactive)	26.5 µM (inactive)	18.1 µM (inactive)	6.89 µM (inactive)	35.1 µM (inactive)	25.5 µM (inactive)	29.2 µM (inactive)	–	> 100 µM (inactive)	14.1 µM (inactive)	19.5 µM (inactive)	9.95 µM (inactive)	26.7 µM (inactive)	45.6 µM (inactive)	14.1 µM (inactive)	24.5 µM (inactive)	27.5 µM (inactive)	14.9 µM (inactive)	27.4 µM (inactive)	29.4 µM (inactive)
O=C1N(c2ccccc2)C2(c3ccccc3)CC3CCCC13S2 (stereo not drawn)	> 100 µM (inactive)	51.3 µM (inactive)	> 100 µM (inactive)	43.3 µM (inactive)	> 100 µM (inactive)	54.8 µM (inactive)	33.3 µM (inactive)	40.9 µM (inactive)	63.4 µM (inactive)	50.5 µM (inactive)	–	55.5 µM (inactive)	> 100 µM (inactive)	33.3 µM (inactive)	26.4 µM (inactive)	50.7 µM (inactive)	49.5 µM (inactive)	77.8 µM (inactive)	> 100 µM (inactive)	–
Cc1nnc(N)nc1/C=C/c1c(O)ccc2ccccc12	13.1 µM (inactive)	37.9 µM (inactive)	36.4 µM (inactive)	15.5 µM (inactive)	33.9 µM (inactive)	34.5 µM (inactive)	24.7 µM (inactive)	–	21.5 µM (inactive)	24.8 µM (inactive)	24.5 µM (inactive)	–	15.6 µM (inactive)	25.7 µM (inactive)	44.4 µM (inactive)	31.6 µM (inactive)	38.7 µM (inactive)	21.5 µM (inactive)	26.5 µM (inactive)	–
OC(c1cccnc1)C(F)(F)c1nc2ccccc2o1 (stereo not drawn)	> 100 µM (inactive)	> 100 µM (inactive)	> 100 µM (inactive)	> 100 µM (inactive)	> 100 µM (inactive)	> 100 µM (inactive)	> 100 µM (inactive)	–	> 100 µM (inactive)	> 100 µM (inactive)	> 100 µM (inactive)	–	> 100 µM (inactive)	> 100 µM (inactive)	> 100 µM (inactive)	> 100 µM (inactive)	> 100 µM (inactive)	> 100 µM (inactive)	–	> 100 µM (inactive)
